What was measured:
L1210 [1] = test: Inhibition of [3H]thymidine uptake into L1210 cells at a concentration of 1 uM; assay type: functional; conditions: Mus musculus
L1210 [2] = test: Reduction of [3H]thymidine uptake into L1210 cells at a concentration of 1 uM; assay type: functional, Mus musculus
L1210 [3] = test: Compound was tested for inhibition of [3H]thymidine uptake into L1210 cells at a concentration of 10 uM; assay type: functional; conditions: Mus musculus

Row | SMILES | inhibition at 1 µM (L1210 [1]) [%] | Reduction (L1210 [2]) [%] | inhibition at 10 µM (L1210 [3]) [%]
1 | COc1ccc(CNc2nc(N(CCO)CCO)nc3c(NCc4ccc(OC)c(OC)c4)nc(N(CCO)CCO)nc23)cc1OC | 71 | 26 | –
2 | OCC(O)COc1nc(N2CCCCC2)c2nc(OCC(O)CO)nc(N3CCCCC3)c2n1 (stereo not given) | – | 22 | 37
3 | OCCN(CCO)c1nc(NCc2ccccc2)c2nc(N(CCO)CCO)nc(NCc3ccccc3)c2n1 | 38 | 45 | –
4 | COc1ccc(CN(C)c2nc(OCCO)nc3c(N(C)Cc4ccc(OC)cc4)nc(OCCO)nc23)cc1 | 73 | 77 | –
5 | COc1ccc(CNc2nc(OCCCO)nc3c(NCc4ccc(OC)cc4)nc(OCCCO)nc23)cc1 | 66 | 26 | –
6 | COc1ccc(CN(C)c2nc(NCC(C)O)nc3c(N(C)Cc4ccc(OC)cc4)nc(NCC(C)O)nc23)cc1 (stereo not given) | 39 | 86 | –
7 | COc1ccc(CN(C)c2nc(OCCCO)nc3c(N(C)Cc4ccc(OC)cc4)nc(OCCCO)nc23)cc1 | 69 | 53 | –
8 | COc1ccc(CNc2nc(OCCO)nc3c(NCc4ccc(OC)cc4)nc(OCCO)nc23)cc1 | 40 | 30 | –
9 | COc1ccc(CNc2nc(NCC(C)O)nc3c(NCc4ccc(OC)cc4)nc(NCC(C)O)nc23)cc1 (stereo not given) | 57 | 45 | –
10 | COc1ccc(CNc2nc(NCC(C)O)nc3c(NCc4ccc(OC)c(OC)c4)nc(NCC(C)O)nc23)cc1OC (stereo not given) | 85 | 14 | –
11 | COc1ccc(CNc2nc(N(CCO)CCO)nc3c(NCc4ccc(OC)cc4)nc(N(CCO)CCO)nc23)cc1 | 56 | 18 | –
12 | COc1ccc(CNc2nc(OCCO)nc3c(NCc4ccc(OC)c(OC)c4)nc(OCCO)nc23)cc1OC | 57 | 23 | –
13 | COc1ccc(CN(C)c2nc(NCC(C)O)nc3c(N(C)Cc4ccc(OC)c(OC)c4)nc(NCC(C)O)nc23)cc1OC (stereo not given) | 73 | 22 | –
14 | COc1ccc(CN(C)c2nc(N(CCO)CCO)nc3c(N(C)Cc4ccc(OC)cc4)nc(N(CCO)CCO)nc23)cc1 | 75 | 47 | –
15 | OCCN(CCO)c1nc(N2CCCCC2)c2nc(N(CCO)CCO)nc(N3CCCCC3)c2n1 [DIPYRIDAMOLE] | 89 | 96 | –
